Results reported in US20240342190A1, “METHODS FOR REDUCING ISCHEMIA-REPERFUSION INJURIES” (BioMimetix JV, LLC, priority 2023, published 2024).

Key:
Assay type in all cases: in vivo, rat
[1] = tested on: young male Wistar rats subjected to 90 min of MCAO (ischemic stroke); assay: Experiment 3: duration of BMX-001 treatment and long-term stroke outcome in young male rats; settings: for MAP: 10 minutes post-stroke; for Neurologic score: median±IQR; for Body weight: p=0.37; for Total infarct: measured at 28 days, p=0.46
Description: (§1) The rats were fasted overnight for glucose control. On the surgery day, they were anesthetized with 5% isoflurane in 30% oxygen balanced with nitrogen. The trachea was orally intubated, and both lungs were mechanically ventilated to maintain normocapnia. Isoflurane was reduced to 1.5% during the surgical procedure. A 22-gauge needle thermistor was percutaneously inserted beneath the temporalis muscle adjacent to the skull. The pericranial temperature was maintained at 37.0° C.±0.2° C. by a surface heat lamp. The tail artery was cannulated with PE 50 tubing (BD Intramedic™ Polyethylene Tubing, Sparks, MD, USA), and arterial blood pressure was continuously monitored. 50 IU of heparin was given via arterial line to prevent intra-arterial thrombosis. Arterial blood samples were collected pre, during, and after ischemia for blood gas, glucose, and hematocrit measurements.
(§2) Ischemic stroke was induced by transiently occluding the middle cerebral artery (MCAO) as previously reported.^23,24 Briefly, a midline cervical incision was made and the right common carotid artery […] was identified. The external and internal carotid arteries were dissected. […] The internal carotid artery (ICA) was dissected distally until the origin of the pterygopalatine artery was visualized. After surgical preparation, a 10 min interval was allowed for physiologic stabilization. […] The common carotid artery was re-opened, and a timer was started as the onset of cerebral ischemia.
(§3) After 90 min of MCAO, the filament was removed and a PE-10 tube (BD Intramedic™ Polyethylene Tubing, Sparks, MD, USA) was inserted into the ICA beyond the origin of the pterygopalatine artery. The vehicle or BMX-001 (30-50 μg/kg) solution (1 μl/g for both solutions, 250 μl for the 250 g rat) was slowly infused for 5 minutes via syringe pump. At the completion of intra-carotid infusion, the PE tube was removed and the ECA stump was permanently ligated. The tail artery catheter was removed and both the neck incision and tail incision were infiltrated with bupivacaine and closed with suture. Isoflurane was discontinued. Rats were disconnected from the ventilator when they attained spontaneous respiration and kept in a recovery cage. The tracheas were extubated after recovery of the righting reflex. They were in an O2 enriched environment (30% O2) for 1 h and then returned to the home cage.
(§4) Post-stroke neurologic deficits were assessed at day 7 and 28 using a standardized neurological scoring system.^27,28 General status, simple motor deficit, complex motor deficit, and sensory deficit were evaluated, including the ability of walking on a beam and climbing on the vertical screen. The total score each animal received was the sum of all four individual scores (0-48, 0=normal and 48=the worst score).
(§5) Upon the completion of functional tests, the animals were weighed, anesthetized with isoflurane, and decapitated. The brains were harvested, frozen at −20° C. in 2-methylbutane on dry ice, and stored in a −80° C. freezer. Serial quadruplicate 20-μm-thick coronal sections were cut using a Leica cryostat and mounted on the slides at 720-μm interval over the rostral-caudal extent of the brain. The sections were dried on a slide heater at 36° C., and stained with hematoxylin and eosin. A section from each […] interval was digitized with a video camera controlled by an image analyzer (MCID, the MicroComputer Imaging Device, Imaging Research Inc, St. Catharines, Ontario, Canada). […] With the observer blinded to the experimental condition, the following regions of interest (ROI) were outlined individually using an operator-controlled cursor, including non-infarcted ipsilateral cerebral cortex, non-infarcted ipsilateral subcortex, contralateral cerebral cortex, and contralateral subcortex. The area in each ROI (mm^2) was determined by automated counting of calibrated pixels and the volume (mm^3) was computed by the known interval between sections over the rostral-caudal extent of brain. […]

[2] = tested on: aged female Fisher 344 rats subjected to 90 min of MCAO; assay: Experiment 5: stroke outcome in aged female rats; settings: for Neurologic score: median±IQR, p<0.001
Description: as §1, §2, §3, §4, §5

[3] = Experiment 6: BMX-001 plasma and brain concentration measurement (LC/MS/MS)
Description: Young male Wistar rats (n=4) were subjected to 90 min of MCAO and 30 μg/kg of BMX-001 intra-carotid infusion following reperfusion. Blood and brain samples were harvested at 30 min after BMX-001 infusion, stored in −80° C. freezer, and measured using Liquid chromatography-tandem-mass spectroscopy (LC/MS/MS) analysis. Brain tissue was homogenized in water (1 g in 2 mL water). Then, […] or […], two Zr-silica beads (2.5 mm), […] 1% HFBA (heptafluorobutyric acid) in 30% acetonitrile/water+BMX-001-d8 (int. std.,50 nM), and […] of chloroform/isopropanol (4/1, v/v) was added to polypropylene tube and vigorously agitated in FastPrep (Thermo Savant) at speed 6 for 45 s, followed by centrifugation at 16,000 rcf for 5 min at room temperature. The […] aliquot of organic (lower) layer was transferred to polypropylene tube and evaporated to dryness by gentle stream of nitrogen. The dry residue was reconstituted into […] of mobile phase A, and […] injected into LC/MS/MS system. The LC/MS/MS analysis was performed on Agilent 1200 HPLC-AB/SCIEX 5500 QTrap MS/MS instrument. LC column: Phenomenex Kinetex 4×3 mm, C18 guard cartridge at 35° C.; mobile phase A: 0.05% HFBA, 10% acetonitrile, water; mobile phase B: 0.05% HFBA in acetonitrile; elution gradient: 0-1 min 0-70% B, 1-2 min 70% B, 2-2.1 min 70-100% B, 2.1-2.6 min 100% B, 2.6-2.7 min 100-0% B; run time: 4 min. MS/MS transitions: BMX-001 (3×HFBA) at m/z 857.3/599.7. Calibration samples in 2.4 (LOQ)—300 nM brain tissue or 0.47 (LOQ)—30 nM plasma concentration range were prepared by adding known amounts of BMX-001 into blank brain homogenate or plasma, and analyzed alongside study samples as a single analytical batch.

[4] = printed 'on day 28 in BMX-001 group'
[5] = 30 μg/kg intracarotid after 90 min MCAO, 30 min after infusion, n=4

For `CCCCOCC[n+]1ccccc1C1=C2C=CC3=[N+]2[Mn]24[n]5c1ccc5C(c1cccc[n+]1CCOCCCC)=C1C=CC(=[N+]12)C(c1cccc[n+]1CCOCCCC)=c1ccc([n]14)=C3c1cccc[n+]1CCOCCCC` [BMX-001, MnTnBuOE-2-PyP^5+], the MAP ([1]; group BMX-001 for 7 days) was 67 ± 5 mmHg, the MAP ([1]; group BMX-001 for 28 days) was 71 ± 6 mmHg and the “Neurological deficits (FIG. 3, Panel B), in words” value ([1]; both day 7 and day 28 post-stroke) was “significantly improved”. The Neurologic score ([1]; day 7 post-stroke, 7 days of BMX-001 group) was 10±8, the Neurologic score ([1]; day 7 post-stroke, 28 days of BMX-001 group) was 11±8 and the Body weight ([1]; day 7 post-stroke, printed 'on day 7 in BMX-001 group') was 276±46 grams. The “Infarct volume (FIG. 3, Panel C), in words” value ([1]; day 28) was “no intra-group difference”, the Neurologic score ([1]; day 28 post-stroke, 7 days of BMX-001) was 6±5 and the Neurologic score ([1]; day 28 post-stroke, 28 days of BMX-001) was 6±4. The Total infarct ([1]; 7 days of BMX-001 group) was 131±66 mm^3, the Total infarct [1, 4] was 112±64 mm^3 and the Body weight [1, 4] was 280±33 grams. For the same compound, the MAP ([2]; 10 minutes post-stroke, aged female Fisher 344 rats) was 90 ± 13 mmHg, the “Infarct volume (FIG. 5, Panel C), in words” value ([2]; 28 days after stroke) was “significantly reduced infarct volume” and the “Reduction of infarct volume” value ([2]; 28 days after stroke, vs vehicle) was 60%. It also gave a Subcortex infarct volume ([2]; 28 days, p=0.0010) of 10±12 mm^3, a Total infarct volume ([2]; 28 days, p=0.0037 vs vehicle) of 31±41 mm^3 and a Cortex infarct volume ([2]; 28 days, p=0.0122 vs vehicle) of 21±32 mm^3. For the same compound, the Neurologic score ([2]; day 7) was 4±4.75, the “Neurologic functions (FIG. 5, Panel B), in words” value ([2]; day 7 and 28 post-stroke) was “significantly attenuated neurologic deficits” and the Body weight ([2]; day 7 post-stroke) was 233±19 grams. The “Body weight loss from the baseline body weight” value ([2]; day 7 post-stroke) was 8 grams, the Neurologic score ([2]; day 28) was 4±4.75 and the “Rats died at post-stroke day 2 due to large infarct” value ([2]; of n=17) was “one”. The “BMX-001 content in contralateral brain hemisphere” value [3, 5] was 0.5 ± 0.3 nM, the “BMX-001 content in ipsilateral brain hemisphere” value [3, 5] was 7.4 ± 8.6 nM and the “BMX-001 content in plasma” value [3, 5] was 11.3 ± 1.2 nM. The “BMX-001 concentration at the site of brain injury relative to the contralateral hemisphere” value ([3]; direct intracarotid infusion) was 15 fold.
